# Molecular target: T1, AHR (UniProt P35869)
# T1 construct: IC50
# T1 sequence (P35869 1-848): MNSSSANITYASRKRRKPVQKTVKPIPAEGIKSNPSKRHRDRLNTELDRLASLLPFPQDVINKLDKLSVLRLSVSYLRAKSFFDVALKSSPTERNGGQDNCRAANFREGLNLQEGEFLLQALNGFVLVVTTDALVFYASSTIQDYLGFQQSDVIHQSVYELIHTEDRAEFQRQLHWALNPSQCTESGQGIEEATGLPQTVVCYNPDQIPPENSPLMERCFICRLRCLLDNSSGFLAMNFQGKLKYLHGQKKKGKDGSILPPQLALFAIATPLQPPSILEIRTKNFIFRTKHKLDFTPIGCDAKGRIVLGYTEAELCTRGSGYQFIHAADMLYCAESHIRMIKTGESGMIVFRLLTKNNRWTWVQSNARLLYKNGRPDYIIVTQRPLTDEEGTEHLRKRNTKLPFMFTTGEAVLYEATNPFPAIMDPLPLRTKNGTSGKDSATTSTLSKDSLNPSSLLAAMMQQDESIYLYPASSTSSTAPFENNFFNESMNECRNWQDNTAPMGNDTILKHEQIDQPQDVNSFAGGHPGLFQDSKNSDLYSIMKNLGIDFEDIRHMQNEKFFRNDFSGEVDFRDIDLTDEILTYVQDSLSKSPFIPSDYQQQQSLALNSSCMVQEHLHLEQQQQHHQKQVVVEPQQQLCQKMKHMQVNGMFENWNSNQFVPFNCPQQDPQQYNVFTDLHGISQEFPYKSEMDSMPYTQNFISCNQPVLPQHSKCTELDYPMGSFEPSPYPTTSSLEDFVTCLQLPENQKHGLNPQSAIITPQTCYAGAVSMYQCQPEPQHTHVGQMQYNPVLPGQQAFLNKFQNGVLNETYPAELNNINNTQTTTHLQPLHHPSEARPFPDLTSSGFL
# Test: DRE-Luciferase Reporter Assay (Alternate Method) (Example 1B)
# Assay type: cell-based, murine or human
# Conditions: cell line and AHR activating ligand not specified
row,SMILES,IC50 [µM]
1,"Fc1cncc(-c2nc(N[C@@H]3CCc4[nH]c5ccccc5c4C3)c3nccn3n2)c1 [I-256, (3R)—N-[2-(5-fluoro-3-pyridyl)imidazo[2,1-f][1,2,4]triazin-4-yl]-2,3,4,9-tetrahydro-1H-carbazol-3-amine]",< 0.5
2,"Fc1cncc(-c2nc(NCCc3c[nH]c4ccccc34)c3ncccc3n2)c1 [I-257, 2-(5-Fluoro-3-pyridyl)-N-[2-(1H-indol-3-yl)ethyl]pyrido[3,2-d]pyrimidin-4-amine]",< 0.5
3,"CC(C)c1cnn2c(N[C@@H]3CCc4[nH]c5ccccc5c4C3)nc(C3CCOCC3)nc12 [I-258, (3R)—N-(8-Isopropyl-2-tetrahydropyran-4-yl-pyrazolo[1,5-a][1,3,5]triazin-4-yl)-2,3,4,9-tetrahydro-1H-carbazol-3-amine]",> 1.5
4,"Cc1cnn2c(N[C@@H]3CCc4[nH]ccc4C3)nc(-c3cncc(F)c3)nc12 [I-259b, 2-(5-Fluoro-3-pyridyl)-8-methyl-N-[(5R)-4,5,6,7-tetrahydro-1H-indol-5-yl]pyrazolo[1,5-a][1,3,5]triazin-4-amine]",< 0.5
5,CC(C)c1cnn2c(NC3CCc4[nH]c5ccccc5c4C3)nc(N3CCN(C)CC3)nc12 (stereo not shown) [I-260],> 1.5
6,CC(C)c1cnn2c(NC3CCc4[nH]c5ccccc5c4C3)nc(-c3cccc(OC(F)(F)F)c3)nc12 (stereo not shown) [I-261],> 1.5
7,"O=C(c1cnn2c(N[C@@H]3CCc4[nH]c5ccccc5c4C3)nc(-c3cncc(F)c3)nc12)N1CCOCC1 [I-262, [2-(5-Fluoro-3-pyridyl)-4-[[(3R)-2,3,4,9-tetrahydro-1H-carbazol-3-yl]amino]pyrazolo[1,5-a][1,3,5]triazin-8-yl]-morpholino-methanone]",< 0.5
8,"CC(C)c1cnn2c(N[C@H]3Cc4[nH]c5ccccc5c4C3)nc(-c3cncc(F)c3)nc12 [I-263b, (2R)—N-[2-(5-fluoro-3-pyridyl)-8-isopropyl-pyrazolo[1,5-a][1,3,5]triazin-4-yl]-1,2,3,4-tetrahydrocyclopenta[b]indol-2-amine]",1 to 1.5
9,"CC(C)c1cnn2c(N[C@@H]3CCc4[nH]c5ccccc5c4C3)nc(N3CCCCC3)nc12 [I-264, (3R)—N-[8-Isopropyl-2-(1-piperidyl)pyrazolo[1,5-a][1,3,5]triazin-4-yl]-2,3,4,9-tetrahydro-1H-carbazol-3-amine]",> 1.5
10,"NC(=O)c1cnn2c(N[C@@H]3CCc4[nH]c5ccccc5c4C3)nc(-c3cncc(F)c3)nc12 [I-265, 2-(5-Fluoro-3-pyridyl)-4-[[(3R)-2,3,4,9-tetrahydro-1H-carbazol-3-yl]amino]pyrazolo[1,5-a][1,3,5]triazine-8-carboxamide]",< 0.5
11,CC(C)c1cnn2c(NCCc3c[nH]c(N)n3)nc(-c3cncc(F)c3)nc12 [I-266],> 1.5
12,"Fc1cncc(-c2nc(N[C@@H]3CCc4[nH]c5ccccc5c4C3)n3ncc(C(F)(F)F)c3n2)c1 [I-267, (3R)—N-[2-(5-Fluoro-3-pyridyl)-8-(trifluoromethyl)pyrazolo[1,5-a][1,3,5]triazin-4-yl]-2,3,4,9-tetrahydro-1H-carbazol-3-amine]",< 0.5
13,CC(C)c1cnn2c(NC3CCc4[nH]c5ccccc5c4C3)nc(C3CCCCC3)nc12 (stereo not shown) [I-268],> 1.5
14,CC(C)c1cnn2c(NC3CCc4[nH]c5ccccc5c4C3)nc(-c3ccc(OC(F)(F)F)cc3)nc12 (stereo not shown) [I-269],> 1.5
15,"CC(C)c1cnn2c(N[C@@H]3CCc4[nH]c5ccccc5c4C3)nc(-c3cncnc3)nc12 [I-270, (3R)—N-(8-Isopropyl-2-pyrimidin-5-yl-pyrazolo[1,5-a][1,3,5]triazin-4-yl)-2,3,4,9-tetrahydro-1H-carbazol-3-amine]",< 0.5
16,CC(C)c1cnn2c(NC3CCc4[nH]c5ccccc5c4C3)nc(-c3ccc4c(c3)OC(F)(F)O4)nc12 (stereo not shown) [I-271],> 1.5
17,CC(C)c1cnn2c(NC3CCc4[nH]c5ccccc5c4C3)nc(-c3ccc(=O)n(C)c3)nc12 (stereo not shown) [I-272],> 1.5
18,Fc1cncc(-c2nc(NC3CCc4[nH]c5ccccc5c4C3)n3ncc(-c4ncc[nH]4)c3n2)c1 (stereo not shown) [I-273],1 to 1.5
19,Fc1cncc(-c2nc(NC3CCc4[nH]c5ccccc5c4C3)n3ncc(-c4cnc[nH]4)c3n2)c1 (stereo not shown) [I-274],< 0.5

# From patent US11358969B2, “Indole AHR inhibitors and uses thereof” (Ikena Oncology, Inc., priority 2017, dated 2022)
